From the NIST ThermoML archive (doi:10.1021/je050540h)
Where “and” joins values, the source holds several entries; their conditions need not be identical. Equal values may be shown once.

Columns and labels:
[1] = Liquid
[2] = xn = mol fraction of the nth substance listed; conditions: 101 kPa, Liquid

C1CCCCC1 [cyclohexane]
[1]
Conditions	mass density, 293.15 K [kg/m3]	mass density, 298.15 K [kg/m3]	mass density, 303.15 K [kg/m3]	speed of sound, 293.15 K [m/s]	speed of sound, 298.15 K [m/s]	speed of sound, 303.15 K [m/s]	viscosity, 293.15 K [mPa·s]	viscosity, 298.15 K [mPa·s]	viscosity, 303.15 K [mPa·s]
7 kPa	–	–	–	1279	1254	1230	–	–	–
101 kPa	778.62	773.92	769.19	1279	1254	1230	0.968	0.887	0.816

C1CCCC1 [cyclopentane]
[1], 101 kPa
Conditions	mass density [kg/m3]	speed of sound [m/s]	viscosity
293.15 K	744.52	1232	0.438 mPa·s and 0.439 mPa·s
298.15 K	739.55	1206	0.416 mPa·s
303.15 K	734.54	1180	0.394 mPa·s

CC(C)O [propan-2-ol]
[1], 101 kPa
Conditions	mass density [kg/m3]	speed of sound [m/s]	viscosity [mPa·s]
293.15 K	785.07	1156	2.382
298.15 K	780.87	1139	2.045
303.15 K	776.6	1121	1.763

CCCC(C)O (stereo not drawn) [pentan-2-ol]
[1]
Conditions	mass density, 293.15 K [kg/m3]	mass density, 298.15 K [kg/m3]	mass density, 303.15 K [kg/m3]	speed of sound, 293.15 K [m/s]	speed of sound, 298.15 K [m/s]	speed of sound, 303.15 K [m/s]	viscosity, 293.15 K [mPa·s]	viscosity, 298.15 K [mPa·s]	viscosity, 303.15 K [mPa·s]
7 kPa	–	–	–	1250	1232	1214	–	–	–
101 kPa	809.04	805.01	800.9	1250	1232	1214	4.001	3.273	2.774

CC(C)O [propan-2-ol] + C1CCCCC1
[2], x2 = 0
Conditions	mass density [kg/m3]	speed of sound [m/s]	viscosity [mPa·s]
293.15 K	785.07	1156	2.382
298.15 K	780.87	1139	2.045
303.15 K	776.6	1121	1.763

CCC(C)O (stereo not drawn) [butan-2-ol] + C1CCCCC1
[2]
Conditions	mass density, 293.15 K [kg/m3]	mass density, 298.15 K [kg/m3]	mass density, 303.15 K [kg/m3]	speed of sound, 293.15 K [m/s]	speed of sound, 298.15 K [m/s]	speed of sound, 303.15 K [m/s]	viscosity, 293.15 K [mPa·s]	viscosity, 298.15 K [mPa·s]	viscosity, 303.15 K [mPa·s]
x2 = 0	806.84	802.72	798.51	1230	1212	1194	3.623	2.995	2.493
x2 = 0.0494	804.24	800.04	795.77	1228	1210	1191	3.231	2.687	2.251
x2 = 0.1003	801.95	797.69	793.34	1226	1207	1188	2.915	2.444	2.066
x2 = 0.1969	797.77	793.37	788.88	1223	1204	1184	2.227	1.891	1.623
x2 = 0.3052	793.48	788.95	784.34	1222	1201	1181	1.726	1.489	1.294
x2 = 0.4044	789.86	785.24	780.54	1222	1201	1179	1.48	1.299	1.142
x2 = 0.5004	786.73	782.04	777.29	1224	1202	1180	1.315	1.166	1.042
x2 = 0.6016	783.91	779.18	774.41	1228	1205	1183	1.16	1.042	0.942
x2 = 0.7145	781.42	776.68	772.02	1236	1213	1189	1.066	0.968	0.888
x2 = 0.8067	779.85	775.08	770.26	1245	1222	1198	0.98	0.892	0.817
x2 = 0.9046	778.86	774.06	769.22	1259	1235	1211	0.962	0.879	0.806
x2 = 0.9523	778.43	773.65	768.82	1267	1242	1218	0.993	0.908	0.833

CCC(C)O (stereo not drawn) [butan-2-ol]
[1], 101 kPa
Conditions	mass density [kg/m3]	speed of sound [m/s]	viscosity [mPa·s]
293.15 K	806.84	1230	3.623
298.15 K	802.72	1212	2.995
303.15 K	798.51	1194	2.493
